Results: the supplement of paper PMC10331698
± gives the standard deviation of the averaged measurements.

How the values were obtained:
[1] = compound: T1, C=CC(=O)OCC(F)(F)C(F)(F)C(F)(F)COC(=O)C=C [1H,1H,5H,5H-Perfluoro-1,5-pentanediol diacrylate]; experiment: LOEC (log10 uM (lowest observed effect concentration))
Experimental: (§1)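 BioMAP Diversity Plus panel in human primary cell co-cultures, 4 concentrations in duplicate blinded samples. Responses are log10 fold change versus DMSO control, processed with tcpl v2.1.0. A hit is called when responses at any concentration exceed the cutoff (the larger of 3*bmad or log10(1.2)); the lowest observed effect concentration (modl_ga, log10 uM) is reported for hits.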

[2] = compound: T2, O=C(O)C(F)(F)C(F)(F)C(F)(F)C(F)(F)C(F)(F)C(F)(F)C(F)(F)C(F)(F)C(F)(F)C(F)F [11-H-Perfluoroundecanoic acid]; experiment: as above
Experimental: as §1

[3] = compound: O=C(O)C=CC(F)(C(F)(F)F)C(F)(F)F [3-(Perfluoroisopropyl)-2-propenoic acid]; experiment: level (log10 ratio to DMSO vehicle control); higher = higher biomarker level / cell amount than vehicle control; settings: in DMSO
Experimental: (§2)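 BioMAP Diversity Plus panel of 12 human primary cell co-culture systems (3C, 4H, LPS, SAg, BT, BF4T, BE3C, CASM3C, HDF3CGF, KF3CT, MyoF, Mphg). Compounds were added 1 h before stimulation and left for 24 h (MyoF 48 h; BT 72 h for soluble read-outs or 6 d for IgG). Biomarkers were read by ELISA, cytotoxicity by SRB, PBMC viability and proliferation by Alamar Blue. Each well value was divided by the mean of 8 DMSO control wells on the same plate and log10 transformed; duplicate blinded samples were tested at 4 concentrations.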

[4] = compound: T2, 11-H-Perfluoroundecanoic acid; experiment: as above; settings: in DMSO
Experimental: as §2

[5] = compound: NC(=O)C(F)(F)C(F)(F)C(F)(F)C(F)(F)C(N)=O [Octafluoroadipamide]; experiment: as above; settings: in DMSO
Experimental: as §2

[6] = compound: C=C(C)C(=O)OCCC(F)(F)C(F)(F)C(F)(F)C(F)(F)C(F)(F)C(F)(F)F [6:2 Fluorotelomer methacrylate]; experiment: as above; settings: in DMSO
Experimental: as §2

[7] = compound: O=S(=O)(O)C(F)(F)C(F)(F)C(F)(F)C(F)(F)C(F)(F)C(F)(F)C(F)(F)C(F)(F)C(F)(F)C(F)(F)F [Sodium perfluorodecanesulfonate]; experiment: as above; settings: in DMSO
Experimental: as §2

[8] = compound: COC(=O)C(F)(F)C(F)(F)OC(F)(C(F)(F)F)C(F)(F)OC(F)=C(F)F [Methyl perfluoro(3-(1-ethenyloxypropan-2-yloxy)propanoate)]; experiment: as above; settings: in DMSO
Experimental: as §2

[9] = compound: NC(=O)C(F)(F)C(F)(F)C(F)(F)C(F)(F)F [Nonafluoropentanamide]; experiment: as above; settings: in DMSO
Experimental: as §2

[10] = compound: FC(F)(F)C(F)(F)C(F)(F)C(F)(F)C(F)(F)C(F)(F)CC1CO1 [3-(Perfluorohexyl)-1,2-epoxypropane]; experiment: as above; settings: in DMSO
Experimental: as §2

[11] = compound: T1, 1H,1H,5H,5H-Perfluoro-1,5-pentanediol diacrylate; experiment: as above; settings: 6700 nM; in DMSO
Experimental: as §2

[12] = compound: NS(=O)(=O)C(F)(F)C(F)(F)C(F)(F)C(F)(F)C(F)(F)C(F)(F)F [Perfluorohexanesulfonamide]; experiment: as above; settings: in DMSO
Experimental: as §2

[13] = compound: O=S(=O)(O)CCC(F)(F)C(F)(F)C(F)(F)C(F)(F)C(F)(F)C(F)(F)F [6:2 Fluorotelomer sulfonic acid]; experiment: as above; settings: in DMSO
Experimental: as §2

[14] = compound: O=S(=O)(F)C(F)(F)C(F)(F)C(F)(F)C(F)(F)C(F)(F)C(F)(F)C(F)(F)C(F)(F)F [Perfluorooctanesulfonyl fluoride]; experiment: as above; settings: in DMSO
Experimental: as §2

[15] = compound: O=S(=O)(Cl)C(F)(F)C(F)(F)C(F)(F)C(F)(F)C(F)(F)C(F)(F)C(F)(F)C(F)(F)F [Perfluoro-1-octanesulfonyl chloride]; experiment: as above; settings: in DMSO
Experimental: as §2

[16] = compound: FC(F)(F)C(F)(F)CNCC(F)(F)C(F)(F)F [Bis(1H,1H-perfluoropropyl)amine]; experiment: as above; settings: in DMSO
Experimental: as §2

[17] = compound: OCC(F)(F)C(F)(F)C(F)(F)CO [Hexafluoroamylene glycol]; experiment: as above; settings: in DMSO
Experimental: as §2

[18] = compound: NC(=O)C(F)(F)C(F)(F)C(F)(F)C(F)F; experiment: as above; settings: in DMSO
Experimental: as §2

[19] = compound: FC(F)(F)C(F)(F)C(F)(F)CC1CO1 [1H,1H-Heptafluorobutyl epoxide]; experiment: as above; settings: in DMSO
Experimental: as §2

[20] = compound: FC(F)(F)C(F)(F)C(F)(F)CI [Heptafluorobutyl iodide]; experiment: as above; settings: in DMSO
Experimental: as §2

[21] = compound: FC(F)(F)C(F)(F)C(F)(F)C(F)(F)C(F)(F)C(F)(F)C(F)(F)I [1-Iodopentadecafluoroheptane]; experiment: as above; settings: in DMSO
Experimental: as §2

LPS TNFa down was tested, and the “LOEC (log10 uM)” value [1] was 1.3.

With LPS Thrombomodulin up the “LOEC (log10 uM)” value [2] was 1.31 ± 0.66 and the “LOEC (log10 uM)” value [1] was 1.3.

For LPS TissueFactor down, the “LOEC (log10 uM)” value [1] was 1.07 ± 0.32.

With MyoF Decorin down the “LOEC (log10 uM)” value [1] was 1.3.

For MyoF IL8 down, the “LOEC (log10 uM)” value [1] was 1.3.

With MyoF TIMP1 down the “LOEC (log10 uM)” value [1] was 1.3.

With MyoF bFGF down the “LOEC (log10 uM)” value [1] was 1.3.

For SAg MIG down, the “LOEC (log10 uM)” value [1] was 1.3.

In the case of SAg PBMCCytotoxicity down, the “LOEC (log10 uM)” value [1] is reported as 0.845.

hDFCGF ICAM1 down was tested, and the “LOEC (log10 uM)” value [1] was 0.301.

In the case of hDFCGF IL8 down, the “LOEC (log10 uM)” value [1] is reported as 0.845.

hDFCGF MMP1 down was tested, and the “LOEC (log10 uM)” value [1] was 0.845.

With hDFCGF SRB down the “LOEC (log10 uM)” value [1] was 0.573 ± 0.39.

In the case of hDFCGF TIMP1 down, the “LOEC (log10 uM)” value [1] is reported as 0.573 ± 0.39.

In the case of lMphg:SRB-Mphg, the “level (log10)” value ([3]; 6700 nM) is reported as 0.0005 ± 0.013, the “level (log10)” value ([3]; 20000 nM) is reported as 0.004 ± 0.0085 and the “level (log10)” value ([3]; 60000 nM) is reported as 0.0075 ± 0.015. The “level (log10)” value ([4]; 6700 nM) was 0.008 ± 0.011, the “level (log10)” value ([4]; 20000 nM) was -0.0095 ± 0.03 and the “level (log10)” value ([5]; 6700 nM) was -0.02 ± 0.027. For the same test system, the “level (log10)” value ([5]; 20000 nM) was -0.0265 ± 0.018, the “level (log10)” value ([5]; 60000 nM) was 0.003 ± 0.018 and the “level (log10)” value ([6]; 6700 nM) was 0.01 ± 0.011. The “level (log10)” value ([6]; 20000 nM) was 0.0095 ± 0.0092, the “level (log10)” value ([6]; 60000 nM) was 0.0105 ± 0.0021 and the “level (log10)” value ([7]; 1500 nM) was -0.067 ± 0.12. For the same test system, the “level (log10)” value ([7]; 4400 nM) was -0.0945 ± 0.083, the “level (log10)” value ([7]; 13000 nM) was -0.119 ± 0.053 and the “level (log10)” value ([7]; 40000 nM) was -0.057 ± 0.13. For the same test system, the “level (log10)” value ([8]; 6700 nM) was -0.011 ± 0.0057, the “level (log10)” value ([8]; 20000 nM) was 0.006 ± 0.017 and the “level (log10)” value ([9]; 6700 nM) was 0.005 ± 0.0085. The “level (log10)” value ([9]; 20000 nM) was -0.005 ± 0.014, the “level (log10)” value ([9]; 60000 nM) was -0.012 ± 0.017 and the “level (log10)” value ([10]; 6700 nM) was 0.0095 ± 0.0092. The “level (log10)” value ([10]; 20000 nM) was 0.0035 ± 0.012, the “level (log10)” value ([10]; 60000 nM) was 0.013 ± 0.0014 and the “level (log10)” value [11] was 0.0135 ± 0.00071. The “level (log10)” value ([12]; 6700 nM) was 0.002 ± 0.0028, the “level (log10)” value ([12]; 20000 nM) was -0.021 ± 0.0057 and the “level (log10)” value ([12]; 60000 nM) was -0.0625 ± 0.013. The “level (log10)” value ([13]; 6700 nM) was 0.0065 ± 0.0064, the “level (log10)” value ([13]; 20000 nM) was 0.0135 ± 0.0078 and the “level (log10)” value ([13]; 60000 nM) was 0.0025 ± 0.036. The “level (log10)” value ([14]; 6700 nM) was 0.0065 ± 0.005, the “level (log10)” value ([14]; 20000 nM) was -0.004 and the “level (log10)” value ([14]; 60000 nM) was 0.004 ± 0.0042. The “level (log10)” value ([15]; 6700 nM) was 0.0025 ± 0.013, the “level (log10)” value ([15]; 20000 nM) was 0.004 ± 0.016 and the “level (log10)” value ([15]; 60000 nM) was -0.0185 ± 0.025. For the same test system, the “level (log10)” value ([16]; 6700 nM) was -0.025 ± 0.03, the “level (log10)” value ([16]; 20000 nM) was -0.058 ± 0.023 and the “level (log10)” value ([16]; 60000 nM) was -0.0025 ± 0.037. The “level (log10)” value ([17]; 6700 nM) was 0.0005 ± 0.0092, the “level (log10)” value ([17]; 20000 nM) was 0.0035 ± 0.015 and the “level (log10)” value ([17]; 60000 nM) was 0.007 ± 0.013. The “level (log10)” value ([18]; 6700 nM) was 0.0005 ± 0.013, the “level (log10)” value ([18]; 20000 nM) was -0.0045 ± 0.015 and the “level (log10)” value ([18]; 60000 nM) was 0.013 ± 0.027. For the same test system, the “level (log10)” value ([19]; 6700 nM) was 0.012 ± 0.0085, the “level (log10)” value ([19]; 20000 nM) was -0.0005 ± 0.021 and the “level (log10)” value ([19]; 60000 nM) was -0.0085 ± 0.005. For the same test system, the “level (log10)” value ([20]; 6700 nM) was -0.0065 ± 0.005, the “level (log10)” value ([20]; 20000 nM) was 0.0055 ± 0.0078 and the “level (log10)” value ([20]; 60000 nM) was 0.007 ± 0.031. For the same test system, the “level (log10)” value ([21]; 6700 nM) was 0.005 ± 0.018 and the “level (log10)” value ([21]; 20000 nM) was 0.0125 ± 0.011.
